Biological target: T1, human B2 bradykinin receptors (CHO-hB2 cell membranes) (Homo sapiens, UniProt P30411)
T1 construct: purchased Receptor Biology, Inc. (Baltimore, Md.); host or cells: CHO-hB2 cells (membranes)
T1 sequence (P30411 1-391): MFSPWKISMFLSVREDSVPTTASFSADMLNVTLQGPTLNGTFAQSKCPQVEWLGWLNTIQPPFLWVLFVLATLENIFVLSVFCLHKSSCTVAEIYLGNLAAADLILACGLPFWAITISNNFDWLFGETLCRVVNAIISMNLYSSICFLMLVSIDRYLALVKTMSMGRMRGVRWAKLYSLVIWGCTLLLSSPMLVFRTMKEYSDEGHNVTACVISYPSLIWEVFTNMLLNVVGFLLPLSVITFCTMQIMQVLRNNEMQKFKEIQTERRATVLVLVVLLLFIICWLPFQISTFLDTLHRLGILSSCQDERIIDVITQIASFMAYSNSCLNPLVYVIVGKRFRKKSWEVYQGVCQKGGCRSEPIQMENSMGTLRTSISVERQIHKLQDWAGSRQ
Assay: [35S]GTPγS Binding Assay in CHO-hB2 Cell Membranes
Type: biochemical
Details: bradykinin-stimulated [35S]GTPγS binding; for Functional Activity (% Basal): number in parentheses, concentration not given
Protocol: [^35S]GTPγS Binding Assay in CHO-hB2Cell Membranes
CHO-hB2 cell membranes were purchased from Receptor Biology, Inc. (Baltimore, Md.). 10 mg/mL of membrane protein was suspended in 10 mM TRIS-HC pH 7.2, 2 mM EDTA, 10% sucrose.
Membranes were added into 15 mL ice cold binding assay buffer. The assay buffer contained 50 mM HEPES, pH 7.6, 5 mM MgCl2, 100 mM NaCl, 1 mM DTT and 1 mM EDTA. The membrane suspension was homogenized twice with a Polytron and centrifuged at 3000 rpm for 10 min. The supernatant was then centrifuged at 18,000 rpm for 20 min. The pellet was saved in a tube and resuspended.
The pellet membranes (40 μg/mL) were preincubated with SPA (scintillation proximity assay) beads (20 mg/mL) at 25 C. ° for 45 min in the assay buffer. The SPA beads (5 mg/mL) coupled with membranes (10 μg/mL) were then incubated with 0.5 nM [^35S]GTPγS in the same HEPES buffer containing 50 μM GDP in total volume of 200 μL. Bradykinin was used to stimulate [^35S]GTPγS binding. Varying concentrations of drugs were incubated with bradykinin to inhibit bradykinin-stimulated [^35S]GTPγS binding. The basal binding was tested in the absence of bradykinin and no specific binding was tested in the present 10 μM unlabeled GTPγS. The radioactivity was quantified on a Packard Top Count, and calculated.
% of Basal=(stimulated binding−non specific binding)/(basal binding−non specific binding)×100.

Row | Functional Activity (word result) | Functional Activity (% Basal) | Structure (SMILES)
1 | Antagonist |  | Cc1ccc2cccc(OCc3c(Cl)ccc(N(C)C(=O)Cc4ccc(C(=O)c5ccccc5[N+](=O)[O-])n4C)c3Cl)c2n1 [Compound 66]
2 | Antagonist |  | Cc1ccc2cccc(OCc3c(Cl)ccc(N(C)C(=O)Cc4ccc(C(=O)c5ccc(Cl)nc5)n4C)c3Cl)c2n1 [Compound 67, 2-[5-(6-Chloro-pyridine-3-carbonyl)-1-methyl-1H-pyrrol-2-yl]-N-[2,4-dichloro-3-(2-methyl-quinolin-8-yloxymethyl)-phenyl]-N-methyl-acetamide]
3 | Weak antagonist | 4 % Basal | COc1ccc(C(=O)c2ccc(CC(=O)N(C)c3ccc(Cl)c(COc4cccc5ccc(C)nc45)c3Cl)n2C)cc1 [Compound 68]
4 | Antagonist |  | CSc1ccc(C(=O)c2ccc(CC(=O)N(C)c3ccc(Cl)c(COc4cccc5ccc(C)nc45)c3Cl)n2C)cc1 [Compound 69]
5 | Antagonist |  | Cc1ccc2cccc(OCc3c(Cl)ccc(N(C)C(=O)Cc4ccc(C(=O)c5ccc(C#N)nc5)n4C)c3Cl)c2n1 [Compound 71]
6 | Antagonist |  | CC(=O)Nc1cccc(C(=O)c2ccc(CC(=O)N(C)c3ccc(Cl)c(COc4cccc5ccc(C)nc45)c3Cl)n2C)c1 [Compound 72]
7 | Antagonist |  | Cc1ccc2cccc(OCc3c(Cl)ccc(N(C)C(=O)Cc4ccc(C(=O)c5ccc([S+](C)[O-])cc5)n4C)c3Cl)c2n1 (stereo not drawn) [Compound 73, N-[2,4-Dichloro-3-(2-methyl-quinolin-8-yloxymethyl)-phenyl]-2-[5-(4-methanesulfinyl-benzoyl)-1-methyl-1H-pyrrol-2-yl]-N-methyl-acetamide]
8 | Antagonist |  | CC(=O)Nc1ccc(C(=O)c2ccc(CC(=O)N(C)c3ccc(Cl)c(COc4cccc5ccc(C)nc45)c3Cl)n2C)cc1 [Compound 74, 2-[5-(4-Acetylamino-benzoyl)-1-methyl-1H-pyrrol-2-yl]-N-[2,4-dichloro-3-(2-methyl-quinolin-8-yloxymethyl)-phenyl]-N-methyl-acetamide]
9 | Antagonist |  | Cc1ccc2cccc(OCc3c(Cl)ccc(N(C)C(=O)Cc4ccc(C(=O)c5ccc(S(C)(=O)=O)cc5)n4C)c3Cl)c2n1 [Compound 75, N-[2,4-Dichloro-3-(2-methyl-quinolin-8-yloxymethyl)-phenyl]-2-[5-(4-methanesulfonyl-benzoyl)-1-methyl-1H-pyrrol-2-yl]-N-methyl-acetamide]

Second part, the compound before the results:

Row | Structure (SMILES) | Functional Activity (word result) | Functional Activity (% Basal)
10 | Cc1ccc2cccc(OCc3c(Cl)ccc(N(C)C(=O)Cc4cc(C(=O)c5ccc(C#N)cc5)n(C)c4)c3Cl)c2n1 [Compound 4, 2-[5-(4-Cyano-benzoyl)-1-methyl-1H-pyrrol-3-yl]-N-[2,4-dichloro-3-(2-methyl-quinolin-8-yloxymethyl)-phenyl]-N-methyl-acetamide] | Antagonist | 
11 | COc1ccc(C(=O)c2ccc(CC(=O)N(C)c3ccc(Cl)c(COc4cccc5ccc(C)nc45)c3Cl)[nH]2)cc1 [Compound 5] | Antagonist | 
12 | CCn1c(CC(=O)N(C)c2ccc(Cl)c(COc3cccc4ccc(C)nc34)c2Cl)ccc1C(=O)c1ccc(C#N)cc1 [Compound 8] | Antagonist | 40 % Basal
13 | CCCn1c(CC(=O)N(C)c2ccc(Cl)c(COc3cccc4ccc(C)nc34)c2Cl)ccc1C(=O)c1ccc(C#N)cc1 [Compound 9] | No effect | 1 % Basal
14 | CCCCn1c(CC(=O)N(C)c2ccc(Cl)c(COc3cccc4ccc(C)nc34)c2Cl)ccc1C(=O)c1ccc(C#N)cc1 [Compound 10] | No effect | 1 % Basal
15 | Cc1ccc2cccc(OCc3c(Cl)ccc(N(C)C(=O)Cc4ccc(C(=O)c5ccc(C#N)cc5)n4CC4CC4)c3Cl)c2n1 [Compound 11, 2-[5-(4-Cyano-benzoyl)-1-cyclopropylmethyl-1H-pyrrol-2-yl]-N-[2,4-dichloro-3-(2-methyl-quinolin-8-yloxymethyl)-phenyl]-N-methyl-acetamide] | No effect | 1 % Basal
16 | Cc1ccc2cccc(OCc3c(Cl)ccc(N(C)C(=O)Cc4ccc(C(=O)c5ccc(C#N)cc5)n4CC(C)C)c3Cl)c2n1 [Compound 12] | No effect | 1 % Basal
17 | Cc1ccc2cccc(OCc3c(Cl)ccc(N(C)C(=O)Cc4ccc(C(=O)c5ccc(C#N)cc5)n4CCC(C)C)c3Cl)c2n1 [Compound 13] | No effect | 1 % Basal
18 | CCN(C(=O)Cc1ccc(C(=O)c2ccc(C#N)cc2)n1C)c1ccc(C)c(COc2cccc3ccc(C)nc23)c1C [Compound 16] | No effect | 1 % Basal
19 | CCN(C(=O)Cc1ccc(C(=O)c2ccc(Cl)nc2)n1C)c1ccc(Cl)c(COc2cccc3ccc(C)nc23)c1Cl [Compound 17] | No effect | 1 % Basal
20 | CCN(C(=O)Cc1ccc(C(=O)c2ccc(C#N)cc2)n1C)c1ccc(Cl)c(COc2cccc3ccc(C)nc23)c1Cl [Compound 18] | No effect | 1 % Basal
21 | Cc1ccc2cccc(OCc3c(Cl)ccc(N(C)C(=O)Cc4ccc(C(=O)CN5CCC(c6ccccc6)CC5)n4C)c3Cl)c2n1 [Compound 58, N-[2,4-Dichloro-3-(2-methyl-quinolin-8-yloxymethyl)-phenyl]-N-methyl-2-{1-methyl-5-[2-(4-phenyl-piperidin-1-yl)-acetyl]-1H-pyrrol-2-yl}-acetamide] | No effect | 1 % Basal
22 | Cc1ccc2cccc(OCc3c(Cl)ccc(N(C)C(=O)Cc4ccc(C(=O)CN5CCC(Cc6ccccc6)CC5)n4C)c3Cl)c2n1 [Compound 59] | No effect | 1 % Basal
23 | Cc1ccc2cccc(OCc3c(Cl)ccc(N(C)C(=O)Cc4ccc(C(=O)c5cccs5)n4C)c3Cl)c2n1 [Compound 61] | Weak antagonist | 
24 | Cc1ccc2cccc(OCc3c(Cl)ccc(N(C)C(=O)Cc4ccc(C(=O)c5ccc(C(=O)N(C)C)cc5)n4C)c3Cl)c2n1 [Compound 62, 4-[5-({[2,4-Dichloro-3-(2-methyl-quinolin-8-yloxymethyl)-phenyl]-methyl-carbamoyl}-methyl)-1-methyl-1H-pyrrole-2-carbonyl]-N,N-dimethyl-benzamide] | Antagonist | 
25 | Cc1ccc2cccc(OCc3c(Cl)ccc(N(C)C(=O)Cc4ccc(C(=O)c5ccc([N+](=O)[O-])cc5)n4C)c3Cl)c2n1 [Compound 63] | Antagonist | 
26 | COC(=O)c1ccc(C(=O)c2ccc(CC(=O)N(C)c3ccc(Cl)c(COc4cccc5ccc(C)nc45)c3Cl)n2C)cc1 [Compound 64] | Antagonist | 
27 | Cc1ccc2cccc(OCc3c(Cl)ccc(N(C)C(=O)Cc4ccc(C(=O)c5ccc([N+](=O)[O-])c(C)c5)n4C)c3Cl)c2n1 [Compound 65, N-[2,4-Dichloro-3-(2-methyl-quinolin-8-yloxymethyl)-phenyl]-N-methyl-2-[1-methyl-5-(3-methyl-4-nitro-benzoyl)-1H-pyrrol-2-yl]-acetamide] | Antagonist | 

Source: patent US20040192720A1, “Novel heteroaryl alkylamide derivatives useful as bradykinin receptor modulators” (priority 2003, published 2004)
